Experiments:
human GLP-1R receptor = target: T1, human GLP-1R receptor (Homo sapiens, UniProt P43220); experiment: GLP-1R low expression cell assay (cAMP TR-FRET, CHO-K1_hGLP-1Rlow_clone10 cells); format: cell-based; details: for EC50: cAMP TR-FRET, 30 min at 25° C.; for Emax: maximum activation relative to control GLP-1 peptide agonist
T1 construct: expressed in transfected cells
In short: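 Readout is cAMP TR-FRET after 30 min compound stimulation at 25 °C of a low-GLP-1R-expressing CHO-K1 clone (1,000 cells/well), with 10-point 3-fold serial dilutions. Percent activation versus a control GLP-1 peptide, from duplicates, was Hill-fitted to give EC50.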

[1] = Rat pharmacokinetics, oral dosing; format: in vivo, Sprague-Dawley rats; details: male, Sprague-Dawley, oral dosing at 3 mg/kg, plasma; for half-life: read-out: Rat T1/2
Experimental: Intravenous dosing: Compounds were formulated at 1.0 mg/mL in a solution comprising 5% polyethylene glycol 400 and 95% (12% (w/v) sulfobutyl-β-cyclodextrin in water) (v/v). Formulated compounds were sterile filtered through a 0.22 micron filter before dosing. Compounds were administered to male, 7-11-week-old Sprague-Dawley rats by jugular vein cannula infusion over 30 minutes at a dose of 1 mg/kg. Oral dosing: Compounds were formulated at 1.0 mg/mL in a solution comprising 5% polyethylene glycol 400 and 95% (12% (w/v) sulfobutyl-β-cyclodextrin in water) (v/v). Formulated compounds were administered to male, 7-11 week old Sprague-Dawley rats by oral gavage at a dose of 10 mg/kg or 3 mg/kg.
Sample collection: Blood collections of about 0.2 mL per time point were performed from jugular vein or other suitable site of each animal, into pre-chilled commercial EDTA-K2 tubes and placed on wet ice until centrifugation. Blood samples were processed for plasma by centrifugation at approximately 4° C., 3,200 g for 10 min. Plasma was collected and transferred into pre-labeled 96 well plate or polypropylene tubes, quick frozen over dry ice and kept at −60° C. or lower until
Data analysis: Plasma concentration versus time data was plotted in graph and analyzed by non-compartmental approaches using the Phoenix WinNonlin 6.3 software program. Related PK parameters were calculated according to dosing route, e.g., CL, Vdss and C0 for intravenous administration, Cmax, Tmax or % F for extravascular administration, and T1/2, AUC(0-t), AUC(0-inf), MRT(0-t), MRT(0-inf) for all routes.

T1 sequence (P43220 24-463): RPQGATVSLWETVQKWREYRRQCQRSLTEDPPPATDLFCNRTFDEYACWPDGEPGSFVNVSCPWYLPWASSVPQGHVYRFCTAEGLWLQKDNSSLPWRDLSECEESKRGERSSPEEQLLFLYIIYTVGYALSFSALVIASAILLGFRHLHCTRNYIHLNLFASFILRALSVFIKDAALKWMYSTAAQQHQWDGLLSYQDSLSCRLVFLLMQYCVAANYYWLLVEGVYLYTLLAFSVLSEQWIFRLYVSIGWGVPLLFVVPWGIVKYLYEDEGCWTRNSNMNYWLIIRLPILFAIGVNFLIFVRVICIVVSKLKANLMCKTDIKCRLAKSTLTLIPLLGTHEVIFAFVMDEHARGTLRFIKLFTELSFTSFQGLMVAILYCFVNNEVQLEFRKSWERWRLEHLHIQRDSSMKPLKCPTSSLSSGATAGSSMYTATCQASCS

Structure (SMILES)	EC50 (human GLP-1R receptor) [nM]	Emax (human GLP-1R receptor) [%]	AUC [1] [ng·h/mL]	Cmax [1] [ng/mL]	half-life [1] [h]	bioavailability [1] [%]
Cn1c(CN2CCC(c3ccc(F)c(OCc4ccc(C#N)cc4F)n3)CC2)nc2c(OC(F)F)cc(C(=O)O)cc21 [Compound 137, 2-((4-(6-((4-Cyano-2-fluorobenzyl)oxy)-5-fluoropyridin-2-yl)piperidin-1-yl)methyl)-4-(difluoromethoxy)-1-methyl-1H-benzo[d]imidazole-6-carboxylic acid]	10 to 100	> 85	2500 to 10000	> 5000	1.5 to 2.5	> 85
C[C@]1(c2ccc(Cl)cn2)Oc2cccc(C3CCN(Cc4nc5c(O)cc(C(=O)O)cc5n4Cc4cncs4)CC3)c2O1 [Compound 90, (S)-2-((4-(2-(5-chloropyridin-2-yl)-2-methylbenzo[d][1,3]dioxol-4-yl)piperidin-1-yl)methyl)-4-hydroxy-1-(thiazol-5-ylmethyl)-1H-benzo[d]imidazole-6-carboxylic acid]	< 10	> 85	< 500	< 500	1.5 to 2.5	< 25
CCOc1cc(C(=O)O)cc2c1nc(CN1CCC(c3cccc(OCc4ccc(C#N)cc4F)n3)CC1)n2C [Compound 298, 2-((4-(6-((4-Cyano-2-fluorobenzyl)oxy)pyridin-2-yl)piperidin-1-yl)methyl)-4-ethoxy-1-methyl-1H-benzo[d]imidazole-6-carboxylic acid]	< 10	> 85	500 to 2500	1000 to 2000	≥ 2.5	25 to 50
Cn1c(CN2CCC(c3cccc(OCc4ccc(Cl)cc4F)n3)CC2)nc2c(OC(F)F)cc(C(=O)O)cc21 [Compound 136, 2-((4-(6-((4-Chloro-2-fluorobenzyl)oxy)pyridin-2-yl)piperidin-1-yl)methyl)-4-(difluoromethoxy)-1-methyl-1H-benzo[d]imidazole-6-carboxylic acid]	< 10	> 85		> 5000	≥ 2.5	> 85
COc1cc(C(=O)O)cc2c1nc(CN1CCC(c3cccc(OCc4ccc(Cl)c5c4OCC5)n3)CC1)n2C [Compound 297, 2-((4-(6-((4-Chloro-2,3-dihydrobenzofuran-7-yl)methoxy)pyridin-2-yl)piperidin-1-yl)methyl)-4-methoxy-1-methyl-1H-benzo[d]imidazole-6-carboxylic acid]	< 10	> 85		2000 to 5000	1.5 to 2.5	25 to 50

Other lines, results leading:

EC50 (human GLP-1R receptor) [nM]	Emax (human GLP-1R receptor) [%]	AUC [1] [ng·h/mL]	Cmax [1] [ng/mL]	half-life [1] [h]	bioavailability [1] [%]	Structure (SMILES)
< 10	> 85	2500 to 10000	2000 to 5000	≥ 2.5	> 85	Cn1c(CN2CCC(c3cccc4c3O[C@@](C)(c3ccc(Cl)cn3)O4)CC2)nc2c(OC(F)F)cc(C(=O)O)cc21 [Compound 83, (S)-2-((4-(2-(5-Chloropyridin-2-yl)-2-methylbenzo[d][1,3]dioxol-4-yl)piperidin-1-yl)methyl)-4-(difluoromethoxy)-1-methyl-1H-benzo[d]imidazole-6-carboxylic acid]
< 10	> 85	2500 to 10000	2000 to 5000	1.5 to 2.5	50 to 85	COc1cc(C(F)(F)F)ccc1COc1cccc(C2CCN(Cc3nc4c(OC)cc(C(=O)O)cc4n3C)CC2)n1 [Compound 306, 4-Methoxy-2-((4-(6-((2-methoxy-4-(trifluoromethyl)benzyl)oxy)pyridin-2-yl)piperidin-1-yl)methyl)-1-methyl-1H-benzo[d]imidazole-6-carboxylic acid]
< 10	> 85		> 5000	1.5 to 2.5	50 to 85	COc1cc(C(F)(F)F)ccc1COc1cccc(C2CCN(Cc3nc4c(OC(F)F)cc(C(=O)O)cc4n3C)CC2)n1 [Compound 154, 4-(Difluoromethoxy)-2-((4-(6-((2-methoxy-4-(trifluoromethyl)benzyl)oxy)pyridin-2-yl)piperidin-1-yl)methyl)-1-methyl-1H-benzo[d]imidazole-6-carboxylic acid]

Source: patent US20240368120A1 (Terns Pharmaceuticals, Inc., priority 2023, published 2024)
